# What was measured:
# [1] = oral, Dong et al. 2003; cited from earlier work
# [2] = Solubility in 90% ethanol (Chinese Pharmacopeia method); format: physicochemical; conditions: 25° C.±2° C., observed at 30 minutes
# Protocol: The solution is observed at 30 minutes, and it is defined as complete dissolution when no solute particles or droplets are noticed.
# • 1. Dissolve ginsenoside Rg3 in ethanol. • 100 mg test ginsenoside Rg3 was added to 100 ml of 90% ethanol at 25° C.±2° C., and forcefully shaken for 30 seconds every 5 minutes. […] Preparation of Rg3 solution in ethanol. • The ginsenoside Rg3-ethanol solution is prepared according to Rg3's solubility, and this solution will be used to determine the percentage of polyoxyethylene hydrogenated castor oil in formulation. • 3. Establishment of artificial gastric and intestinal environments. • The artificial gastric and intestinal fluids are prepared in accordance to experimental example 2. • 4. Determination of the proportion of protectant polyoxyethylene hydrogenated castor oil (Cremophor RH40) in ginsenoside Rg3-ethanol solution. • Polyoxyethylene hydrogenated castor oil (Cremophor RH40) at different proportions, from 5%-90%, is added to 100 ml ginsenoside Rg3-ethanol solution, and then the mixture is subjected to artificial gastric or intestinal fluids for stability test. […] The highest proportion as determined, i.e., 50% or 175 mg is adopted for drug preparation. • 5. […]
# • 1. […] The highest proportion as determined, i.e., 40% or 150 mg is adopted for drug preparation. • 5. […]
Structure (SMILES),absorption rate from the GI tract [1],Amount completely dissolved in 100 ml 90% ethanol [2]
CC(C)=CCC[C@](C)(O[C@@H]1O[C@H](CO[C@@H]2O[C@H](CO)[C@@H](O)[C@H](O)[C@H]2O)[C@@H](O)[C@H](O)[C@H]1O)[C@H]1CC[C@]2(C)[C@@H]1[C@H](O)C[C@@H]1[C@@]3(C)CC[C@H](O[C@@H]4O[C@H](CO)[C@@H](O)[C@H](O)[C@H]4O[C@@H]4O[C@H](CO)[C@@H](O)[C@H](O)[C@H]4O)C(C)(C)[C@@H]3CC[C@]12C [Rb1],1%,
"CC(C)=CCC[C@](C)(O[C@@H]1O[C@H](CO)[C@@H](O)[C@H](O)[C@H]1O)[C@H]1CC[C@]2(C)[C@@H]1[C@H](O)C[C@@H]1[C@@]3(C)CC[C@H](O)C(C)(C)[C@@H]3[C@@H](O[C@@H]3O[C@H](CO)[C@@H](O)[C@H](O)[C@H]3O)C[C@]12C [Rg1, ginsenoside Rg1]",1.9%,
"CC(C)=CCC[C@](C)(O)[C@H]1CC[C@]2(C)[C@@H]1[C@H](O)C[C@@H]1[C@@]3(C)CC[C@H](O[C@@H]4O[C@H](CO)[C@@H](O)[C@H](O)[C@H]4O[C@@H]4O[C@H](CO)[C@@H](O)[C@H](O)[C@H]4O)C(C)(C)[C@@H]3CC[C@]12C [Rg3, ginsenoside Rg3]",,100 mg
"CC(C)=CCC[C@](C)(O)[C@H]1CC[C@]2(C)[C@@H]1[C@H](O)C[C@@H]1[C@@]3(C)CC[C@H](O[C@@H]4O[C@H](CO)[C@@H](O)[C@H](O)[C@H]4O)C(C)(C)[C@@H]3CC[C@]12C [Rh2, ginsenoside Rh2]",3.4%,
"CC(C)=CCC[C@@](C)(O)[C@H]1CC[C@]2(C)[C@@H]1[C@H](O)C[C@@H]1[C@@]3(C)CC[C@H](O)C(C)(C)[C@@H]3CC[C@]12C [aPPD, protopanoxadiol sapogenin aPPD]",,40 mg

# Reference: US20080038335A1, “METHOD, FORMULATION, AND USE THEREOF FOR IMPROVED ORAL ABSORPTION OF PHARMACEUTICALS OR NUTRIENTS” (SHANGHAI TIANBO BIOTECHNOLOGY CO., LTD., priority 2005, published 2008)
